Data set [1] has as its system ERK phosphorylation in NCI-H358 SOS2 KO cells (KRAS G12C). In words: Erk phosphorylation assay. It is filed as cell-based, human. The note with it: EGF stimulated, average of at least two measurements, read-out: pERK IC50. The procedure, abridged:
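NCI-H358 SOS2 KO cells (KRAS G12C) in DMEM/2% FBS were pretreated 50 min with compound, then stimulated with EGF (approx. 8 ng/mL) for 10-15 min. pERK1/2 (Thr202/Tyr204) measured in lysates by AlphaLISA SureFire; IC50 from variable-slope fit, averaged over at least two measurements.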

For a further data set, the target named is SOS1 and KRAS G12D (Homo sapiens (Human), UniProt Q07889). In words: KRAS::SOS1 AlphaScreen binding assay (KRAS G12D). The note with it: average of at least two measurements.
SOS1 and KRAS G12D, sequence (Q07889 564-1049, stated change not applied): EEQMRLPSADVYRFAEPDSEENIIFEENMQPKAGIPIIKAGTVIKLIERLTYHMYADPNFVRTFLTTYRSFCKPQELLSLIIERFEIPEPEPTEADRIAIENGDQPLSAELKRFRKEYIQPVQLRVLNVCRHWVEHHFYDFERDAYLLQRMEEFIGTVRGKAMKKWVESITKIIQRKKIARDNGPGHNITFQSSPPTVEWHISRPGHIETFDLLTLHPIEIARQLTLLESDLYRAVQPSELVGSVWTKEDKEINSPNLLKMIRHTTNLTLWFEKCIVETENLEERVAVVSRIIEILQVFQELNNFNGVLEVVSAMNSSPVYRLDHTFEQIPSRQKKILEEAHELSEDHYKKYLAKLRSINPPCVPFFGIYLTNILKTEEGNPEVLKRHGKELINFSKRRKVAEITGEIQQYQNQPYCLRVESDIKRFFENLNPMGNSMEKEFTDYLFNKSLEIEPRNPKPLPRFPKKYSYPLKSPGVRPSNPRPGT
Another data set concerns human hepatocytes. The data set can be described thus: Metabolic stability in human hepatocytes. The note with it: 1 μM test compound, 50% human serum, percentage of liver blood flow.
The next data set addresses CYP3A4 (Homo sapiens (Human), UniProt P08684). The data set can be described thus: Mechanism-based inhibition of CYP3A4 assay (MBI 3A4). Conditions: human liver microsomes, midazolam substrate, hydroxy-midazolam formation after 30 min preincubation relative to 0 min; for inhibition at 30 min: human, probe midazolam 15 μM (hydroxy-midazolam formation), read-out: MBI inhibition % ctrl. [%] with MDZ. It is filed as in vitro ADME. The procedure, abridged: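 Human liver microsomes (0.2 mg/mL) were preincubated with compound at 0, 5 or 25 μM plus 1 mM NADPH for 0, 10 or 30 min, then diluted 1:10 and incubated 10 min with 15 μM midazolam. Hydroxy-midazolam was measured by LC/MS-MS; readout is formation after 30 min relative to 0 min preincubation (%).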

A further data set deals with SOS1 and KRAS G12C (Homo sapiens (Human), UniProt Q07889). In words: KRAS::SOS1 AlphaScreen binding assay (KRAS G12C). The note with it: average of at least two measurements. (Bead proximity is the source of the signal in Alpha formats.)
SOS1 and KRAS G12C, sequence (Q07889 564-1049, stated change not applied): as above
The next data set concerns the target P450 3A4 (Homo sapiens (Human), UniProt P08684). The data set can be described thus: Cytochrome P450 isoenzyme inhibition assay (P450 3A4, midazolam). Format: in vitro ADME. The note with it: human liver microsomes, Midazolam as substrate; read-out: CYP3A4 inhibition IC50. In outline:
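Midazolam (5 μM) hydroxylation by human liver microsomes (0.1 mg/ml) in 0.1 M TRIS with 5 mM MgCl2, started with 1 mM NADPH. Five compound concentrations in duplicate, e.g. top 50 μM with 1:4 dilutions. Metabolite quantified by LC-MS/MS against internal standard; IC50 from inhibition relative to no-compound control.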
Background: Liver microsomes are vesicles of endoplasmic reticulum, rich in cytochrome P450 enzymes.

Where [2] appears, read: Homo sapiens, NCI-H358, NCI-H358 SOS2 KO cells.

Where two headings read alike, the source gives them in different places.

CYP3A4, sequence (P08684 whole entry): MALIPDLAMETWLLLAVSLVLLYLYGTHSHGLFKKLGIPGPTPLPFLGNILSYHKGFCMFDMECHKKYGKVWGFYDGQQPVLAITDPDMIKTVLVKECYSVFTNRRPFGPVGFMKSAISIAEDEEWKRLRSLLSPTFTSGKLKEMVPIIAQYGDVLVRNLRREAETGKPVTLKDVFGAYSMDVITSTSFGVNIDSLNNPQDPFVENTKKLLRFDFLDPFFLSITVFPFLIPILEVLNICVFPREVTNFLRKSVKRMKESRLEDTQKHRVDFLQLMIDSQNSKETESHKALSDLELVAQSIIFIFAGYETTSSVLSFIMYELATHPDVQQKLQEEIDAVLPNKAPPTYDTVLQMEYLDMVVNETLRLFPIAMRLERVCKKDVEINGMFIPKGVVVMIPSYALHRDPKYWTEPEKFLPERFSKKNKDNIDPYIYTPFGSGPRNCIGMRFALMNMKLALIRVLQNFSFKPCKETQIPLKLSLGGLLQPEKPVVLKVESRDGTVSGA
P450 3A4, sequence (P08684 whole entry): as above

A word on the IC50: it is the midpoint of a concentration-inhibition curve. One may read the inhibition as the drop in the measured response relative to a control, in per cent. With `C[C@@H](NC(=O)c1cc(N2CCC(N(C)CC(C)(C)O)CC2)c2ncnn2c1)c1cccc(C(F)F)c1F` [Example E7], the IC50 in data set [1] (setting [2]) is 246 nM; on SOS1 and KRAS G12D, 43 nM; on SOS1 and KRAS G12C, 50 nM; on P450 3A4 it was > 50000 nM. Besides, the “Hepatic clearance - QH[%] in human hepatocytes” value (“Hepatic clearance - QH[%]” below) with human hepatocytes came to 31%. Also, the inhibition at 30 min on CYP3A4 came to 106%.
As to `C[C@@H](NC(=O)c1cc(N2CCC3(CCNC3)CC2)c2ncnn2c1)c1cccc(C(F)(F)F)c1F` [Example E36], the IC50 in data set [1] (setting [2]) is 144 nM; on SOS1 and KRAS G12D it was 22 nM; at SOS1 and KRAS G12C it was 28 nM; on P450 3A4, > 50000 nM. Further, the “Hepatic clearance - QH[%]” value with human hepatocytes was determined as 10%. Moreover, the inhibition at 30 min on CYP3A4 worked out at 96%.
For the compound `C[C@@H](NC(=O)c1cc(N2CCC(N3CC[C@@H](O)C3)CC2)c2ncnn2c1)c1cccc(C(F)F)c1F` [Example E2], the IC50 in data set [1] (setting [2]) was 92 nM; on SOS1 and KRAS G12D it was 46 nM; at SOS1 and KRAS G12C it was 55 nM; at P450 3A4, > 50000 nM. Besides, in the data set with human hepatocytes, the “Hepatic clearance - QH[%]” value is 15%. In addition, at CYP3A4, the inhibition at 30 min worked out at 95%.
Take `C[C@@H](NC(=O)c1cc(N2CCC(NCC(C)(C)O)CC2)c2ncnn2c1)c1cccc(C(F)(F)F)c1F` [Example E50]: the half-inhibitory concentration (IC50) was 220 nM in data set [1] (setting [2]); 42 nM at SOS1 and KRAS G12D; 49 nM at SOS1 and KRAS G12C; > 50000 nM on P450 3A4. Also, in the data set on human hepatocytes, the “Hepatic clearance - QH[%]” value is on record as 15%. Besides, the inhibition at 30 min on CYP3A4 was 83%.
Consider `C[C@@H](NC(=O)c1cc(N2CCC(N3CCC(O)C(C)(O)C3)CC2)c2ncnn2c1)c1cccc(C(F)(F)F)c1F` (stereo partly drawn) [Example cis-E29], for which the IC50 was 261 nM in data set [1] (setting [2]); 46 nM at SOS1 and KRAS G12D; 56 nM on SOS1 and KRAS G12C; > 50000 nM on P450 3A4. The “Hepatic clearance - QH[%]” value in the data set on human hepatocytes came to 24%. Also, the inhibition at 30 min at CYP3A4 turned out to be 95%.
Consider `C[C@@H](NC(=O)c1cc(C2=CCC(N3CCC[C@H](O)C3)CC2)c2nncn2c1)c1cccc(C(F)F)c1F` (stereo partly drawn) [Example E82], for which the IC50 in data set [1] (setting [2]) was 90 nM; on SOS1 and KRAS G12D it was 15 nM; at SOS1 and KRAS G12C, 20 nM; at P450 3A4, > 50000 nM. For the same compound, the “Hepatic clearance - QH[%]” value in the data set on human hepatocytes was 5%. The inhibition at 30 min on CYP3A4 was 92%.
Consider `C[C@H](CO)NC1CCN(c2cc(C(=O)N[C@H](C)c3cccc(C(F)(F)F)c3F)cn3ncnc23)CC1` [Example E54], for which the IC50 in data set [1] (setting [2]) is 186 nM; at SOS1 and KRAS G12D, 31 nM; on SOS1 and KRAS G12C it was 39 nM; on P450 3A4, > 50000 nM. In addition, the “Hepatic clearance - QH[%]” value with human hepatocytes amounted to 12%. In addition, on CYP3A4, the inhibition at 30 min was determined as 85%.
In the case of `C[C@@H](NC(=O)c1cc(N2CCC(NC3COCC3O)CC2)c2ncnn2c1)c1cccc(C(F)(F)F)c1F` (single isomer, unassigned) [Example cis-E41b], the IC50 was 367 nM in data set [1] (NCI-H358 SOS2 KO cells); 38 nM at SOS1 and KRAS G12D; 41 nM at SOS1 and KRAS G12C; > 50000 nM on P450 3A4. Further, the “Hepatic clearance - QH[%]” value in the data set with human hepatocytes is listed as 26%. Further, the inhibition at 30 min on CYP3A4 turned out to be 95%.
Regarding `Cc1nc2c(N3CCC4(CCCN4)CC3)cc(C(=O)N[C@H](C)c3cccc(C(F)(F)F)c3F)cn2n1` [Example E78], the 50% inhibitory concentration (IC50) in data set [1] (setting [2]) was 223 nM; at SOS1 and KRAS G12D, 41 nM; on SOS1 and KRAS G12C, 43 nM; on P450 3A4, > 50000 nM. In addition, the “Hepatic clearance - QH[%]” value in the data set on human hepatocytes came to 5%. The inhibition at 30 min on CYP3A4 stood at 103%.
Regarding `C[C@@H](NC(=O)c1cc(N2CCC3(CCCCN3C)CC2)c2ncnn2c1)c1cccc(C(F)(F)F)c1F` [Example E46], the IC50 in data set [1] (setting [2]) was 162 nM; on SOS1 and KRAS G12D, 31 nM; at SOS1 and KRAS G12C, 34 nM; at P450 3A4, > 50000 nM. Moreover, the “Hepatic clearance - QH[%]” value with human hepatocytes came to 9%. Also, at CYP3A4, the inhibition at 30 min was determined as 98%.
For `C[C@@H](NC(=O)c1cc(N2CCC(N3CC[C@@](C)(O)C3)CC2)c2ncnn2c1)c1cccc(C(F)F)c1F` [Example E5], the IC50 in data set [1] (setting [2]) was 324 nM; at SOS1 and KRAS G12D, 57 nM; at SOS1 and KRAS G12C, 65 nM; on P450 3A4, > 50000 nM. In the data set with human hepatocytes, the “Hepatic clearance - QH[%]” value was 16%. Besides, on CYP3A4, the inhibition at 30 min was 103%.
As for `C[C@@H](NC(=O)c1cc(N2CCC3(CCCN3)CC2)c2ncnn2c1)c1cccc(C(F)(F)F)c1F` [Example E34], the IC50 in data set [1] (setting [2]) is 62 nM; at SOS1 and KRAS G12D, 34 nM; on SOS1 and KRAS G12C it was 42 nM; on P450 3A4, > 50000 nM. In addition, the “Hepatic clearance - QH[%]” value with human hepatocytes was 10%. Moreover, the inhibition at 30 min at CYP3A4 turned out to be 106%.
On to `C[C@@H]1C[C@H](O)CN1C1CCN(c2cc(C(=O)N[C@H](C)c3cccc(C(F)(F)F)c3F)cn3ncnc23)CC1` [Example E24], for which the IC50 was 325 nM in data set [1] (NCI-H358 SOS2 KO cells); 46 nM at SOS1 and KRAS G12D; 56 nM on SOS1 and KRAS G12C; > 50000 nM at P450 3A4. The “Hepatic clearance - QH[%]” value in the data set on human hepatocytes is 22%. Also, the “MBI inhibition % ctrl. [%] with MDZ” value on CYP3A4 is reported as 99%.
In the case of `C[C@@H](NC(=O)c1cc(N2CCC(N3CC4CC4(CO)C3)CC2)c2ncnn2c1)c1cccc(C(F)F)c1F` (single isomer, unassigned) [Example cis-E21b], the IC50 in data set [1] (NCI-H358 SOS2 KO cells) is 242 nM; on SOS1 and KRAS G12D, 82 nM; on SOS1 and KRAS G12C it was 78 nM; on P450 3A4, > 50000 nM. Also, the “Hepatic clearance - QH[%]” value in the data set on human hepatocytes is recorded as 38%. Besides, on CYP3A4, the “MBI inhibition % ctrl. [%] with MDZ” value was 96%.
With `C[C@@H](NC(=O)c1cc(N2CCC(N3CCCC(C)(O)C3)CC2)c2ncnn2c1)c1cccc(C(F)(F)F)c1F` (single isomer, unassigned) [Example E47b], the IC50 was 198 nM in data set [1] (NCI-H358 SOS2 KO cells); 45 nM on SOS1 and KRAS G12D; 41 nM at SOS1 and KRAS G12C; > 50000 nM at P450 3A4. Moreover, in the data set on human hepatocytes, the “Hepatic clearance - QH[%]” value turned out to be 28%. In addition, the “MBI inhibition % ctrl. [%] with MDZ” value on CYP3A4 amounted to 88%.
As for `C[C@@H](NC(=O)c1cc(N2CCC(N3CCC4(CC4)C3)CC2)c2ncnn2c1)c1cccc(C(F)F)c1F` [Example E8], the IC50 in data set [1] (setting [2]) was 188 nM; on SOS1 and KRAS G12D it was 69 nM; on SOS1 and KRAS G12C, 70 nM; at P450 3A4 it was > 50000 nM. In the data set on human hepatocytes, the “Hepatic clearance - QH[%]” value is listed as 18%. In addition, the inhibition at 30 min at CYP3A4 stood at 97%.
On to `C[C@@H](NC(=O)c1cc(N2CCC(N3CC[C@](C)(O)C3)CC2)c2ncnn2c1)c1cccc(C(F)F)c1F` [Example E4], for which the half-inhibitory concentration (IC50) in data set [1] (setting [2]) was 336 nM; at SOS1 and KRAS G12D it was 70 nM; at SOS1 and KRAS G12C, 82 nM; at P450 3A4, > 50000 nM. The “Hepatic clearance - QH[%]” value in the data set with human hepatocytes amounted to 20%. Besides, at CYP3A4, the inhibition at 30 min came to 99%.
In the case of `C[C@@H](NC(=O)c1cc(N2CCC(N3CCC[C@H]3CO)CC2)c2ncnn2c1)c1cccc(C(F)(F)F)c1F` [Example E31], the IC50 in data set [1] (setting [2]) was 153 nM; on SOS1 and KRAS G12D, 28 nM; on SOS1 and KRAS G12C, 33 nM; on P450 3A4 it was > 50000 nM. Moreover, the “Hepatic clearance - QH[%]” value in the data set on human hepatocytes was found to be 13%. Besides, on CYP3A4, the inhibition at 30 min amounted to 91%.

The record behind these values is US20250313560A1, “Novel bicyclic benzylamido pyridine derivatives as SOS1 inhibitors” (Boehringer Ingelheim International GmbH, priority 2024, published 2025).
